Results taken from patent US20240360178A1, “MACROCYCLIC IMMUNOMODULATORS” (Bristol-Myers Squibb Company, priority 2021, published 2024).
Positions of bridges follow the written chain, without caps; N, C: chain ends. Non-standard residues stand in square brackets, D forms with d. Residues, ends and D or L forms follow the SMILES beside them. ξ: configuration not given here. *: point of attachment. Phe(4-COOH) = N[C@@H](Cc1ccc(C(=O)O)cc1)C(=O)O; Bip = N[C@@H](Cc1ccc(-c2ccccc2)cc1)C(=O)O; Phe(3-OMe) = COc1cccc(C[C@H](N)C(=O)O)c1; NMeF = CN[C@@H](Cc1ccccc1)C(=O)O; 3Pal = N[C@@H](Cc1cccnc1)C(=O)O; 4Pal = N[C@@H](Cc1ccncc1)C(=O)O; dHyp = O=C(O)[C@H]1C[C@H](O)CN1; dPip = O=C(O)[C@H]1CCCCN1; Carboxymethyl = O=C(O)C*; NMeA = CN[C@@H](C)C(=O)O; dAze = O=C(O)[C@H]1CCN1; ξV = CC(C)C(N)C(=O)O; Sar = CNCC(=O)O

What follows are compounds tested against T1, human PD-1 (Jurkat-PD-1 cells) / PE-labeled human PD-L1-Ig (Homo sapiens, UniProt Q15116) (assay: Jurkat-PD-1 Cell Binding High-Content Screening Assay (CBA); Jurkat hPD1-PDL1 assay). Settings: Jurkat cell line over-expressing human PD-1; PE-labeled PD-L1-Ig 20 nM final; compound incubated 2 hours at 37° C.; read-out: Jurkat HPD1-PDL1 IC50.
T1 construct: expressed in transfected cells; host or cells: Jurkat cell line over-expressing human PD-1
Description: The ability of the compounds of formula (I) to bind to PD-1 was investigated using a Jurkat-PD-1 Cell Binding High-Content Screening Assay.
Jurkat-PD-1 Cell Binding High-Content Screening Assay (CBA)
Phycoerythrin (PE) was covalently linked to the Ig epitope tag of human PD-L1-Ig and fluorescently-labeled PD-L1-Ig was used for binding studies with a Jurkat cell line over-expressing human PD-1 (Jurkat-PD-1). Briefly, 8×10^3 Jurkat-hPD-1 cells were seeded into 384 well plates in 20 μL of DMEM supplemented with 10% fetal calf serum. 100 nL of compound was added to cells followed by incubation at 37° C. for 2 hours. Then, 5 μL of PE-labeled PD-L1-Ig (20 nM final), diluted in DMEM supplemented with 10% fetal calf serum. […] Data was collected and processed using a Cell Insight NXT High Content Imager and associated software.

T1 sequence (Q15116 25-288): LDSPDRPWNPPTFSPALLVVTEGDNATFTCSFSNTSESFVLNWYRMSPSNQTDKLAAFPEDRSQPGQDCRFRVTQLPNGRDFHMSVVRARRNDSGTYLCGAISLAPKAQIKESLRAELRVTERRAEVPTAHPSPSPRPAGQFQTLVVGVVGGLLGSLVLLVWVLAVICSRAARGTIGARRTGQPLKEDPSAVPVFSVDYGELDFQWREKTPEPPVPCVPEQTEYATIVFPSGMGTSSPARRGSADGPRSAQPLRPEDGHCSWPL

Structure (SMILES)	IC50 [nM]
CC(C)C[C@@H]1NC(=O)[C@H](CCCNC(=N)N)NC(=O)[C@H](Cc2ccccc2)N(C)C(=O)[C@H](C)N(C)C(=O)[C@H](CCCNC(=N)N)NC(=O)[C@H](Cc2ccc(-c3ccccc3)cc2)NC(=O)[C@H](C(C)C)NC(=O)[C@H](Cc2c[nH]c3ccccc23)NC(=O)[C@H](CC(=O)O)NC(=O)[C@H](Cc2ccc(O)cc2)NC(=O)[C@H](Cc2ccccc2)NC(=O)CSC[C@@H](C(=O)NCC(N)=O)NC(=O)[C@H](CO)NC(=O)[C@H](C(C)C)NC1=O [Example 1000] ({CH2CO}-FYDWV[Bip]R[NMeA][NMeF]RLVSCG-NH2; thioether N-14)	260
CC(C)C[C@@H]1NC(=O)[C@H](Cc2c[nH]c3ccccc23)NC(=O)[C@H](CC(=O)O)NC(=O)[C@H](Cc2ccc(O)cc2)NC(=O)[C@H](Cc2ccccc2)NC(=O)CSC[C@@H](C(=O)NCC(N)=O)NC(=O)[C@H](CO)NC(=O)[C@H](C(C)C)NC(=O)[C@H](CC(C)C)NC(=O)[C@H](CC(N)=O)NC(=O)CN(C)C(=O)[C@H](C)N(C)C(=O)[C@H](C(C)C)NC(=O)[C@H](Cc2ccc(-c3ccccc3)cc2)NC1=O [Example 1001] ({CH2CO}-FYDWL[Bip]V[NMeA][Sar]NLVSCG-NH2; thioether N-14)	920
CC(C)C[C@@H]1NC(=O)[C@H](Cc2c[nH]c3ccccc23)NC(=O)[C@H](CC(=O)O)NC(=O)[C@H](Cc2ccc(O)cc2)NC(=O)[C@H](Cc2ccccc2)NC(=O)CSC[C@@H](C(=O)N[C@@H](C)C(N)=O)NC(=O)[C@H](CO)NC(=O)[C@H](C(C)C)NC(=O)[C@H](CC(C)C)NC(=O)[C@H](CC(N)=O)NC(=O)CN(C)C(=O)[C@H]2C[C@H](O)CN2C(=O)C(C(C)C)NC(=O)[C@H](Cc2ccc(-c3ccccc3)cc2)NC1=O (stereo partly drawn) [Example 1003] ({CH2CO}-FYDWL[Bip][ξV][dHyp][Sar]NLVSCA-NH2; thioether N-14)	760
CC(C)C[C@@H]1NC(=O)[C@H](Cc2c[nH]c3ccccc23)NC(=O)[C@H](CC(=O)O)NC(=O)[C@H](Cc2ccc(O)cc2)NC(=O)[C@H](Cc2ccccc2)NC(=O)CSC[C@@H](C(=O)N[C@@H](C)C(N)=O)NC(=O)[C@H](CO)NC(=O)[C@H](C(C)C)NC(=O)[C@H](CC(C)C)NC(=O)[C@H](CC(N)=O)NC(=O)[C@H]2CCCCN2C(=O)[C@H]2CCCN2C(=O)[C@H](C(C)C)NC(=O)[C@H](Cc2ccc(-c3ccccc3)cc2)NC1=O [Example 1006] ({CH2CO}-FYDWL[Bip]V[dP][dPip]NLVSCA-NH2; thioether N-14)	40
CC(C)C[C@@H]1NC(=O)[C@H](Cc2c[nH]c3ccccc23)NC(=O)[C@H](CC(=O)O)NC(=O)[C@H](Cc2ccc(O)cc2)NC(=O)[C@H](Cc2ccccc2)NC(=O)CSC[C@@H](C(=O)N[C@@H](C)C(N)=O)NC(=O)[C@H](CO)NC(=O)[C@H](C(C)C)NC(=O)[C@H](CC(C)C)NC(=O)[C@H](CC(N)=O)NC(=O)[C@H]2CCCN2C(=O)[C@H]2CCCN2C(=O)[C@H](C(C)C)NC(=O)[C@H](Cc2ccc(-c3ccccc3)cc2)NC1=O [Example 1007] ({CH2CO}-FYDWL[Bip]V[dP][dP]NLVSCA-NH2; thioether N-14)	150
CC(C)C[C@@H]1NC(=O)[C@H](Cc2c[nH]c3ccccc23)NC(=O)[C@H](CC(=O)O)NC(=O)[C@H](Cc2ccc(C(=O)O)cc2)NC(=O)[C@H](Cc2ccccc2)NC(=O)CSC[C@@H](C(=O)N[C@@H](C)C(N)=O)NC(=O)[C@H](CO)NC(=O)[C@H](C(C)C)NC(=O)[C@H](CC(C)C)NC(=O)[C@H](CC(N)=O)NC(=O)[C@H]2CCCN2C(=O)[C@H](C)N(C)C(=O)[C@H](C(C)C)NC(=O)[C@H](Cc2ccc(-c3ccccc3)cc2)NC1=O [Example 1020] ({CH2CO}-F[Phe(4-COOH)]DWL[Bip]V[NMeA][dP]NLVSCA-NH2; thioether N-14)	40
CC(C)C[C@@H]1NC(=O)[C@H](Cc2c[nH]c3ccccc23)NC(=O)[C@H](CC(=O)O)NC(=O)[C@H](Cc2ccc(O)cc2)NC(=O)[C@H](Cc2ccccc2)NC(=O)CSC[C@@H](C(=O)N[C@@H](C)C(N)=O)NC(=O)[C@H](CO)NC(=O)[C@H](C(C)C)NC(=O)[C@H](CC(C)C)NC(=O)[C@H](CC(N)=O)NC(=O)[C@H]2CCN2C(=O)[C@H](C)N(C)C(=O)[C@H](C(C)C)NC(=O)[C@H](Cc2ccc(-c3ccccc3)cc2)NC1=O [Example 1021] ({CH2CO}-FYDWL[Bip]V[NMeA][dAze]NLVSCA-NH2; thioether N-14)	40

Further lines, results first:

IC50 [nM]	Structure (SMILES)
10	COc1cccc(C[C@@H]2NC(=O)[C@H](CC(=O)O)NC(=O)[C@H](Cc3ccc(O)cc3)NC(=O)[C@H](Cc3ccccc3)NC(=O)CSC[C@@H](C(=O)N[C@@H](C)C(N)=O)NC(=O)[C@H](CO)NC(=O)[C@H](C(C)C)NC(=O)[C@H](CC(C)C)NC(=O)[C@H](CC(N)=O)NC(=O)[C@H]3CCCN3C(=O)[C@H](C)N(C)C(=O)[C@H](C(C)C)NC(=O)[C@H](Cc3ccc(-c4ccccc4)cc3)NC(=O)[C@H](CC(C)C)NC2=O)c1 [Example 1022] ({CH2CO}-FYD[Phe(3-OMe)]L[Bip]V[NMeA][dP]NLVSCA-NH2; thioether N-14)
40	CC(C)C[C@@H]1NC(=O)[C@H](Cc2c[nH]c3ccccc23)NC(=O)[C@H](CC(=O)O)NC(=O)[C@H](Cc2ccc(O)cc2)NC(=O)[C@H](Cc2ccncc2)NC(=O)CSC[C@@H](C(=O)N[C@@H](C)C(N)=O)NC(=O)[C@H](CO)NC(=O)[C@H](C(C)C)NC(=O)[C@H](CC(C)C)NC(=O)[C@H](CC(N)=O)NC(=O)[C@H]2CCCN2C(=O)[C@H](C)N(C)C(=O)[C@H](C(C)C)NC(=O)[C@H](Cc2ccc(-c3ccccc3)cc2)NC1=O [Example 1023] ({CH2CO}-[4Pal]YDWL[Bip]V[NMeA][dP]NLVSCA-NH2; thioether N-14)
40	CC(C)C[C@@H]1NC(=O)[C@H](Cc2c[nH]c3ccccc23)NC(=O)[C@H](CC(=O)O)NC(=O)[C@H](Cc2ccc(C(=O)O)cc2)NC(=O)[C@H](Cc2cccnc2)NC(=O)CSC[C@@H](C(=O)N[C@@H](C)C(N)=O)NC(=O)[C@H](CO)NC(=O)[C@H](C(C)C)NC(=O)[C@H](CC(C)C)NC(=O)[C@H](CC(N)=O)NC(=O)[C@H]2CCCN2C(=O)[C@H](C)N(C)C(=O)[C@H](C(C)C)NC(=O)[C@H](Cc2ccc(-c3ccccc3)cc2)NC1=O [Example 1025] ({CH2CO}-[3Pal][Phe(4-COOH)]DWL[Bip]V[NMeA][dP]NLVSCA-NH2; thioether N-14)
50	CC(C)C[C@@H]1NC(=O)[C@H](Cc2c[nH]c3ccccc23)NC(=O)[C@H](CC(=O)O)NC(=O)[C@H](Cc2ccc(O)cc2)NC(=O)[C@H](Cc2ccccc2)NC(=O)CSC[C@@H](C(=O)N[C@@H](C)C(N)=O)NC(=O)[C@H](CO)NC(=O)[C@H](C(C)C)NC(=O)[C@H](CC(C)C)NC(=O)[C@H](CC(N)=O)NC(=O)[C@H]2CCCN2C(=O)[C@H](C)N(C)C(=O)[C@H](CCCNC(=N)N)NC(=O)[C@H](Cc2ccc(-c3ccccc3)cc2)NC1=O [Example 1027] ({CH2CO}-FYDWL[Bip]R[NMeA][dP]NLVSCA-NH2; thioether N-14)
50	CC(C)C[C@@H]1NC(=O)[C@H](C)NC(=O)[C@H]2CCCN2C(=O)[C@H](C)N(C)C(=O)[C@H](CCC(=O)O)NC(=O)[C@H](Cc2ccc(-c3ccccc3)cc2)NC(=O)[C@H](CC(C)C)NC(=O)[C@H](Cc2c[nH]c3ccccc23)NC(=O)[C@H](CC(=O)O)NC(=O)[C@H](Cc2ccc(O)cc2)NC(=O)[C@H](Cc2ccccc2)NC(=O)CSC[C@@H](C(=O)N[C@@H](C)C(N)=O)NC(=O)[C@H](CO)NC(=O)[C@H](C(C)C)NC1=O [Example 1028] ({CH2CO}-FYDWL[Bip]E[NMeA][dP]ALVSCA-NH2; thioether N-14)
50	CC(C)C[C@@H]1NC(=O)[C@H](Cc2c[nH]c3ccccc23)NC(=O)[C@H](CC(=O)O)NC(=O)[C@H](Cc2ccc(OCC(=O)O)cc2)NC(=O)[C@H](Cc2ccccc2)NC(=O)CSC[C@@H](C(=O)N[C@@H](C)C(N)=O)NC(=O)[C@H](CO)NC(=O)[C@H](C(C)C)NC(=O)[C@H](CC(C)C)NC(=O)[C@H](CC(N)=O)NC(=O)[C@H]2CCCN2C(=O)[C@H](C)N(C)C(=O)[C@H](C(C)C)NC(=O)[C@H](Cc2ccc(-c3ccccc3)cc2)NC1=O [Example 1029] ({CH2CO}-FY(Carboxymethyl)DWL[Bip]V[NMeA][dP]NLVSCA-NH2; thioether N-14)
60	CC(C)C[C@@H]1NC(=O)[C@H](Cc2c[nH]c3ccccc23)NC(=O)[C@H](CC(=O)O)NC(=O)[C@H](Cc2ccc(OCC(=O)O)cc2)NC(=O)[C@H](Cc2ccccc2)NC(=O)CSC[C@@H](C(=O)NCC(N)=O)NC(=O)[C@H](CO)NC(=O)[C@H](C(C)C)NC(=O)[C@H](CC(C)C)NC(=O)[C@H](CC(N)=O)NC(=O)CN(C)C(=O)[C@H](C)N(C)C(=O)[C@H](C(C)C)NC(=O)[C@H](Cc2ccc(-c3ccccc3)cc2)NC1=O [Example 1030] ({CH2CO}-FY(Carboxymethyl)DWL[Bip]V[NMeA][Sar]NLVSCG-NH2; thioether N-14)
60	CC(C)C[C@@H]1NC(=O)[C@H](Cc2c[nH]c3ccccc23)NC(=O)[C@H](CC(=O)O)NC(=O)[C@H](Cc2ccc(O)cc2)NC(=O)[C@H](CC(N)=O)NC(=O)CSC[C@@H](C(=O)N[C@@H](C)C(N)=O)NC(=O)[C@H](CO)NC(=O)[C@H](C(C)C)NC(=O)[C@H](CC(C)C)NC(=O)[C@H](CC(N)=O)NC(=O)[C@H]2CCCN2C(=O)[C@H](C)N(C)C(=O)[C@H](C(C)C)NC(=O)[C@H](Cc2ccc(-c3ccccc3)cc2)NC1=O [Example 1031] ({CH2CO}-NYDWL[Bip]V[NMeA][dP]NLVSCA-NH2; thioether N-14)
